According to patent US7429460B2, “Methods of screening for inhibitors of phospholipid synthesis related to glycolipid-storage diseases” (Yeda Research and Development Co., Ltd., priority 2003, dated 2008):

Columns and labels:
[1] = test system: rat hippocampal neurons; conditions: 500 μM CBE for 4- or 8-days; cited from earlier work
[2] = test system: human macrophages; assay: PC synthesis in macrophage cultures; format: cell-based; conditions: 500 μM CBE for 6 days
Description: Human macrophages were obtained from healthy donors. Blood samples were immediately diluted 2.5 times with PBS pH 7.4 and layered on 3 ml Ficoll Histopaque 1.077 in conical tubes. The tubes were then centrifuged at 400 g for 25 min. The peripheral blood mononuclear leukocyte (PBL) band at the PBS-plasma/Ficoll interface was taken for further analyses. PBL were washed twice with PBS pH 7.4, and resuspended in 5 ml of RPMI 1640 containing 10% fetal calf serum. An aliquot of the cell suspension was used to assess cell viability using the exclusion trypan-blue test. The cell suspension was adjusted to a final concentration of 6*10^6 cells/ml and incubated for 3 hours at 37° C. in a plastic Petri dish (Falcon). Non adherent cell suspension (mononuclear leukocytes) was then transferred to a culture flask while the adherent cells (mainly macrophages) were cultured separately in RPMI 1640 supplemented with 10% fetal calf serum, 2 mM L-glutamine, 100 U/ml penicillin and 0.1 mg/ml streptomycin. The cells were cultured in separate cultures with or without 500 μM CBE for 5 days; on day 5, PMA was added to the macrophage suspension (final concentration: 10 ng/ml) to allow full differentiation. […] The cells were thoroughly washed with non-radioactive medium and lipids were further extracted and analyzed as described herein above. […]

[3] = test system: CCT α and β1/2 RNA; assay: RT-PCR of CCT isoforms in treated neurons; format: cell-based, rat; conditions: 500 μM CBE, up to 8-days
Description: Total cellular RNA was prepared from ˜0.5×10^6 neurons grown on 24 mm cover slips using the RNeasy Mini Kit (Qiagen, Hilden, Germany) according to manufacturers'instructions. The reverse transcription-polymerase chain reaction (RT-PCR) was performed using the QIAGEN OneStep RT-PCR kit (Qiagen, Hilden, Germany). Briefly, each reaction contained 10 ng of total RNA, 0.6 μM of primers, 1.6 mM deoxynucleotide triphosphates (0.4 mM each) and 1 μl QIAGEN OneStep RT-PCR Enzyme Mix in the supplied buffer in a total volume of 25 μl. Primers (CCT: 5′-ACTTTAGTAA GCCCTATGTC (SEQ ID NO. 7) and 5′-[…] (SEQ ID NO. 8), 34 cycles, annealing temperatures 53° C.; CCT: 5′-[…] (SEQ ID NO. 9) and 5′-[…] (SEQ ID NO. 10), 30 cycles, annealing temperature 51° C.; glyceraldehyde -3-phosphate dehydrogenase: 5′-TTAGCACCCCTGGCCAAGG (SEQ ID NO. 11) and 5′- ATTACTCCTT GGAGGCCATG (SEQ ID NO. 12), 23 cycles, annealing temperature 50° C.) were designed using the MacMolly Tetra program (Sofigene, Berlin, Germany) and were synthesized by the Weizmann Institute Oligonucleotide and Peptide Synthesis facility. […] PCR products, 9 μl each, were analyzed by electrophoresis in 1.5 % agarose gels.

[4] = test system: CTP:phosphocholine cytidylyltransferase (CCT); assay: CCT assay in homogenates of treated hippocampal neurons; format: cell-based, rat; conditions: neurons incubated with 500 μM CBE for 4- or 8-days
Description: (§1) Neurons from individual cover slips were washed twice with ice-cold phosphate-buffered saline, and cells removed by scraping into 300 μl of buffer containing 50 mM imidazole, 2 mM EDTA, 150 mM KCl, 6 mM ADP, 0.2 mM phenylmethylsulfonylfluoride, 1 μg/ml pepstatin and 1 μg/ml leupeptin. After brief sonication, an aliquot was removed for DNA determination and 100 μl was used for the CCT assay.
CCT was assayed as described (Weinhold P A and Feldman D A. 1992. Choline-phosphate cytidylyltransferase. Methods Enzymol. 209, 248-258), with some minor modifications. The assay was performed in a final volume of 200 μl containing 1.6 mM phosphorylcholine/0.25 μCi [^14C]methyl phosphorylcholine, 3 mM CTP, 12 mM magnesium acetate, and DOPC liposomes with or without oleic acid and GicCer or GalCer, as indicated in the figure legends. Liposomes were prepared by sonicating resuspended lipids in the assay buffer at room temperature for 3 min using a sonicator (Sonics & Materials Inc., Newtown, Conn.) fitted with a micro-tip probe set to 750 W output, using 25% of the maximal amplitude and with pulsations of 9.0 sec every 9.2 sec, which gave a translucent liposome preparation with no precipitates. The final concentration of DOPC and oleic acid in the liposomes was 500 μM each. […]

[5] = test system: CTP:phosphocholine cytidylyltransferase (CCT); assay: CCT assay in hippocampal neuron homogenates with substance added to the assay mixture; format: biochemical, rat; conditions: added directly to the assay mixture
Description: as §1
CCT was assayed as described (Weinhold P A and Feldman D A. 1992. Choline-phosphate cytidylyltransferase. Methods Enzymol. 209, 248-258), with some minor modifications. The assay was performed in a final volume of 200 μl containing 1.6 mM phosphorylcholine/0.25 μCi [^14C]methyl phosphorylcholine, 3 mM CTP, 12 mM magnesium acetate, and DOPC liposomes with or without oleic acid and GicCer or GalCer, as indicated in the figure legends. Liposomes were prepared by sonicating resuspended lipids in the assay buffer at room temperature for 3 min using a sonicator (Sonics & Materials Inc., Newtown, Conn.) fitted with a micro-tip probe set to 750 W output, using 25% of the maximal amplitude and with pulsations of 9.0 sec every 9.2 sec, which gave a translucent liposome preparation with no precipitates. The final concentration of DOPC and oleic acid in the liposomes was 500 μM each. The reaction was terminated after 25 min at 37° C. by addition of 200 μl of 150 mM phosphorylcholine in 10% trichloroacetic acid. CDP-choline was recovered by addition of 2 ml of 6% charcoal in water (w/v). After 30 min at room temperature the charcoal suspension was washed 4 times with water and centrifuged at 1,000 gav for 10 min. The aqueous supernatants were removed and CDP-choline was eluted from the charcoal with 3 washes of water/ethanol/28% NH4OH (116:188:11, v/v/v). Eluates were pooled and evaporated to dryness under N2. Phosphorylcholine and CDP-choline were added to the tubes and the samples separated by TLC using 0.9% NaCl/methanol/28% NE4OH (50:70:5, v/v/v) as the developing solvent. Metabolites were identified by iodine, and the CDP-choline spot was scraped into scintillation vials for scintillation counting.
CCT activity was assayed in homogenates prepared from 8-day-old normal rat hippocampal neurons as described herein above. The reaction mixture comprised 0.5 mM DOPC/0.5 mM oleic acid/0.3 mM sphingolipid or lyso-sphingolipid. CCT activity with each sphingolipid or lyso-sphingolipid was measured twice. Basal CCT activity differed by ˜20% between the two experiments; however, the extent of activation or inhibition of CT activity was similar for each sphingolipid and lyso-sphingolipid.

elevation of CCT activity [4]: 2-3 fold
effect on CCT activity when added directly to the assay mixture [5]: had no effect
SMILES: O[C@H]1[C@H](O)[C@@H](O)[C@@H]2O[C@@H]2[C@@H]1O (racemic) [CBE, conduritol-B-epoxide]
increase in the rate of incorporation of [3H]dihydrosphingosine into [3H]GlcCer [1]: 4-5 fold
[14C]-PC in treated macrophages [2]: dramatic increase
CCT RNA levels (RT-PCR) [3]: No changes
